From patent US20230340011A1 (Asteroid Therapeutics, priority 2022, published 2023) come the findings set out here.

One test deals with LXRβ (Homo sapiens (Human), UniProt P55055). In words: In vitro assay LXRβ: PathHunter NHR CHO cells, LXRβ / Steroid Receptor Co-activator Peptide enzyme fragment complementation. It is filed as cell-based. The conditions noted are these: PathHunter NHR CHO cells, full-length human LXRβ and SRCP, chemiluminescent signal; read-out: LXRβ PPI. In short, it runs like this: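 Co-activator recruitment measured by chemiluminescence after signal generation. The CHO line carries full-length human LXRβ tagged with ProLink and an SRCP–enzyme acceptor fusion in the nucleus; cells sat overnight at 37° C before testing, in charcoal-dextran filtered serum medium with 1% final vehicle.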

Another test concerns the target SREBP-2 (Homo sapiens (Human), UniProt Q12772). In words: In vitro assay SREBP-2: PathHunter U2OS SREBP-2 Nuclear Translocation Cell Line, U18666A-stimulated. It is filed as cell-based. To be noted: PathHunter U2OS SREBP-2 nuclear translocation cells, U18666A 10 μM, overnight (16 hours).

Sequence of LXRβ (P55055 whole entry, the tested form may be a part): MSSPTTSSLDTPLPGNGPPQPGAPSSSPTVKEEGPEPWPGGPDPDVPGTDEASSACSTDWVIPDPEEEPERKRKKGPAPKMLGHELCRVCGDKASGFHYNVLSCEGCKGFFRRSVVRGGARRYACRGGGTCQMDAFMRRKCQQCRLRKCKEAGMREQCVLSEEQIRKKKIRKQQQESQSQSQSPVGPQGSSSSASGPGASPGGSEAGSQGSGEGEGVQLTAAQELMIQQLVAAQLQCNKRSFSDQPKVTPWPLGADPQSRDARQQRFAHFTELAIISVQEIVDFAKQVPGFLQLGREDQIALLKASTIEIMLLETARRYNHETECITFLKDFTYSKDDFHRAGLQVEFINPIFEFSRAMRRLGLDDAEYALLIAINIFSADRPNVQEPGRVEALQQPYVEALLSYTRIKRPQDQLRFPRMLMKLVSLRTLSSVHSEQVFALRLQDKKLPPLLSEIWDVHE

Consider `C[C@H](CCC(=O)N1CCC2(CC1)COC2)[C@H]1CC[C@H]2[C@@H]3CC=C4C[C@@H](O)CC[C@]4(C)[C@H]3CC[C@]12C` [Example 80, (R)-4-((3S,8S,9S,10R,13R,14S,17R)-3-hydroxy-10,13-dimethyl-2,3,4,7,8,9,10,11,12,13,14,15,16,17-tetradecahydro-1H-cyclopenta[a]phenanthren-17-yl)-1-(2-oxa-7-azaspiro[3.5]nonan-7-yl)pentan-1-one], for which, on LXRβ, the EC50 lay in the range of 1000 to 10000 nM. The IC50 (as a rule, the point on the concentration scale where inhibition reaches its midpoint) on SREBP-2 was less than 250 nM.
Turning to `C[C@H](CCC(=O)N1CCCOCC1)[C@H]1CC[C@H]2[C@@H]3CC=C4C[C@@H](O)CC[C@]4(C)[C@H]3CC[C@]12C` [Example 81, (R)-4-((3S,8S,9S,10R,13R,14S,17R)-3-hydroxy-10,13-dimethyl-2,3,4,7,8,9,10,11,12,13,14,15,16,17-tetradecahydro-1H-cyclopenta[a]phenanthren-17-yl)-1-(1,4-oxazepan-4-yl)pentan-1-one], the EC50 at LXRβ was 250 to 1000 nM. At SREBP-2, the IC50 is less than 250 nM.
The like results for `C[C@H](CCC(=O)N1CCC(C(F)(F)F)CC1)[C@H]1CC[C@H]2[C@@H]3CC=C4C[C@@H](O)CC[C@]4(C)[C@H]3CC[C@]12C` [Example 82, (R)-4-((3S,8S,9S,10R,13R,14S,17R)-3-hydroxy-10,13-dimethyl-2,3,4,7,8,9,10,11,12,13,14,15,16,17-tetradecahydro-1H-cyclopenta[a]phenanthren-17-yl)-1-(4-(trifluoromethyl)piperidin-1-yl)pentan-1-one] were, in that order, more than 10000 nM and less than 250 nM.
Taken in the same sequence, the figures for `CC(=O)NC1(C)CCN(C(=O)CC[C@@H](C)[C@H]2CC[C@H]3[C@@H]4CC=C5C[C@@H](O)CC[C@]5(C)[C@H]4CC[C@]23C)CC1` [Example 83, N-(1-((R)-4-((3S,8S,9S,10R,13R,14S,17R)-3-hydroxy-10,13-dimethyl-2,3,4,7,8,9,10,11,12,13,14,15,16,17-tetradecahydro-1H-cyclopenta[a]phenanthren-17-yl)pentanoyl)-4-methylpiperidin-4-yl)acetamide] were more than 10000 nM and 250 to 1000 nM.
The like results for `C[C@H](CCC(=O)N1CCC(C)(NS(C)(=O)=O)CC1)[C@H]1CC[C@H]2[C@@H]3CC=C4C[C@@H](O)CC[C@]4(C)[C@H]3CC[C@]12C` [Example 84, N-(1-((R)-4-((3S,8S,9S,10R,13R,14S,17R)-3-hydroxy-10,13-dimethyl-2,3,4,7,8,9,10,11,12,13,14,15,16,17-tetradecahydro-1H-cyclopenta[a]phenanthren-17-yl)pentanoyl)-4-methylpiperidin-4-yl)methanesulfonamide] were, in that order, more than 10000 nM and 250 to 1000 nM.
In the case of `C[C@H](CCC(=O)N1CCC(C)(C(N)=O)CC1)[C@H]1CC[C@H]2[C@@H]3CC=C4C[C@@H](O)CC[C@]4(C)[C@H]3CC[C@]12C` [Example 85, 1-((R)-4-((3S,8S,9S,10R,13R,14S,17R)-3-hydroxy-10,13-dimethyl-2,3,4,7,8,9,10,11,12,13,14,15,16,17-tetradecahydro-1H-cyclopenta[a]phenanthren-17-yl)pentanoyl)-4-methylpiperidine-4-carboxamide], at LXRβ, the EC50 was more than 10000 nM. Moreover, the IC50 on SREBP-2 is less than 250 nM.
Taken in the same sequence, the figures for `CNC(=O)C1(C)CCN(C(=O)CC[C@@H](C)[C@H]2CC[C@H]3[C@@H]4CC=C5C[C@@H](O)CC[C@]5(C)[C@H]4CC[C@]23C)CC1` [Example 86, 1-((R)-4-((3S,8S,9S,10R,13R,14S,17R)-3-hydroxy-10,13-dimethyl-2,3,4,7,8,9,10,11,12,13,14,15,16,17-tetradecahydro-1H-cyclopenta[a]phenanthren-17-yl)pentanoyl)-N,4-dimethylpiperidine-4-carboxamide] were more than 10000 nM and 250 to 1000 nM.
The like results for `C[C@H](CCC(=O)N1CCC(C)(C(=O)N(C)C)CC1)[C@H]1CC[C@H]2[C@@H]3CC=C4C[C@@H](O)CC[C@]4(C)[C@H]3CC[C@]12C` [Example 87, 1-((R)-4-((3S,8S,9S,10R,13R,14S,17R)-3-hydroxy-10,13-dimethyl-2,3,4,7,8,9,10,11,12,13,14,15,16,17-tetradecahydro-1H-cyclopenta[a]phenanthren-17-yl)pentanoyl)-N,N,4-trimethylpiperidine-4-carboxamide] were, in that order, more than 10000 nM and 250 to 1000 nM.
The like results for `C[C@H](CCC(=O)N1CCC2(CCCO2)CC1)[C@H]1CC[C@H]2[C@@H]3CC=C4C[C@@H](O)CC[C@]4(C)[C@H]3CC[C@]12C` [Example 88, (R)-4-((3S,8S,9S,10R,13R,14S,17R)-3-hydroxy-10,13-dimethyl-2,3,4,7,8,9,10,11,12,13,14,15,16,17-tetradecahydro-1H-cyclopenta[a]phenanthren-17-yl)-1-(1-oxa-δ-azaspiro[4.5]decan-δ-yl)pentan-1-one] were, in that order, more than 10000 nM and less than 250 nM.
For the compound `C[C@H](CCC(=O)N1CCC2(CCOC2)CC1)[C@H]1CC[C@H]2[C@@H]3CC=C4C[C@@H](O)CC[C@]4(C)[C@H]3CC[C@]12C` [Example 89, (R)-4-((3S,8S,9S,10R,13R,14S,17R)-3-hydroxy-10,13-dimethyl-2,3,4,7,8,9,10,11,12,13,14,15,16,17-tetradecahydro-1H-cyclopenta[a]phenanthren-17-yl)-1-(2-oxa-δ-azaspiro[4.5]decan-δ-yl)pentan-1-one], on LXRβ, the EC50 was more than 10000 nM. At SREBP-2, this compound came in with an IC50 of less than 250 nM.
Regarding `C[C@H](CCC(=O)N1CCC(O)(c2ccccc2)CC1)[C@H]1CC[C@H]2[C@@H]3CC=C4C[C@@H](O)CC[C@]4(C)[C@H]3CC[C@]12C` [Example 91, (R)-4-((3S,8S,9S,10R,13R,14S,17R)-3-hydroxy-10,13-dimethyl-2,3,4,7,8,9,10,11,12,13,14,15,16,17-tetradecahydro-1H-cyclopenta[a]phenanthren-17-yl)-1-(4-hydroxy-4-phenylpiperidin-1-yl) pentan-1-one], the EC50 at LXRβ is more than 10000 nM. Further, the IC50 on SREBP-2 is less than 250 nM.
Regarding `COC1CCN(C(=O)CC[C@@H](C)[C@H]2CC[C@H]3[C@@H]4CC=C5C[C@@H](O)CC[C@]5(C)[C@H]4CC[C@]23C)CC1` [Example 94, (R)-4-((3S,8S,9S,10R,13R,14S,17R)-3-hydroxy-10,13-dimethyl-2,3,4,7,8,9,10,11,12,13,14,15,16,17-tetradecahydro-1H-cyclopenta[a]phenanthren-17-yl)-1-(4-methoxypiperidin-1-yl)pentan-1-one], the EC50 at LXRβ lay within 250 to 1000 nM. Moreover, the IC50 on SREBP-2 was less than 250 nM.
`C[C@H](CCC(=O)N1CC(C(O)(C(F)(F)F)C(F)(F)F)C1)[C@H]1CC[C@H]2[C@@H]3CC=C4C[C@@H](O)CC[C@]4(C)[C@H]3CC[C@]12C` [Example 97, (R)-1-(3-(1,1,1,3,3,3-hexafluoro-2-hydroxypropan-2-yl)azetidin-1-yl)-4-((3S,8S,9S,10R,13R,14S,17R)-3-hydroxy-10,13-dimethyl-2,3,4,7,8,9,10,11,12,13,14,15,16,17-tetradecahydro-1H-cyclopenta[a]phenanthren-17-yl) pentan-1-one]: the EC50 on LXRβ is more than 10000 nM. At SREBP-2, this compound showed an IC50 of less than 250 nM.
The like results for `C[C@H](CCC(=O)N1CC[C@@H](C(O)(C(F)(F)F)C(F)(F)F)C1)[C@H]1CC[C@H]2[C@@H]3CC=C4C[C@@H](O)CC[C@]4(C)[C@H]3CC[C@]12C` [Example 98, (R)-1-((R)-3-(1,1,1,3,3,3-hexafluoro-2-hydroxypropan-2-yl)pyrrolidin-1-yl)-4-((3S,8S,9S,10R,13R,14S,17R)-3-hydroxy-10,13-dimethyl-2,3,4,7,8,9,10,11,12,13,14,15,16,17-tetradecahydro-1H-cyclopenta[a]phenanthren-17-yl)pentan-1-one] were, in that order, more than 10000 nM and less than 250 nM.
Taken in the same sequence, the figures for `C[C@H](CCC(=O)N1CCC(C(O)(C(F)(F)F)C(F)(F)F)CC1)[C@H]1CC[C@H]2[C@@H]3CC=C4C[C@@H](O)CC[C@]4(C)[C@H]3CC[C@]12C` [Example 99, (R)-1-(4-(1,1,1,3,3,3-hexafluoro-2-hydroxypropan-2-yl)piperidin-1-yl)-4-((3S,8S,9S,10R,13R,14S,17R)-3-hydroxy-10,13-dimethyl-2,3,4,7,8,9,10,11,12,13,14,15,16,17-tetradecahydro-1H-cyclopenta[a]phenanthren-17-yl)pentan-1-one] were more than 10000 nM and less than 250 nM.
Taken in the same sequence, the figures for `C[C@H](CCC(=O)N1CC2(CC(O)C2)C1)[C@H]1CC[C@H]2[C@@H]3CC=C4C[C@@H](O)CC[C@]4(C)[C@H]3CC[C@]12C` [Example 100, (R)-4-((3S,8S,9S,10R,13R,14S,17R)-3-hydroxy-10,13-dimethyl-2,3,4,7,8,9,10,11,12,13,14,15,16,17-tetradecahydro-1H-cyclopenta[a]phenanthren-17-yl)-1-(6-hydroxy-2-azaspiro[3.3]heptan-2-yl)pentan-1-one] were more than 10000 nM and less than 250 nM.
In the case of `C[C@H](CCC(=O)N1CC2(C1)CC(C)(O)C2)[C@H]1CC[C@H]2[C@@H]3CC=C4C[C@@H](O)CC[C@]4(C)[C@H]3CC[C@]12C` [Example 101, (R)-4-((3S,8S,9S,10R,13R,14S,17R)-3-hydroxy-10,13-dimethyl-2,3,4,7,8,9,10,11,12,13,14,15,16,17-tetradecahydro-1H-cyclopenta[a]phenanthren-17-yl)-1-(6-hydroxy-6-methyl-2-azaspiro[3.3]heptan-2-yl)pentan-1-one], on LXRβ, the EC50 is more than 10000 nM. The compound also came in with an IC50 against SREBP-2 of less than 250 nM.
